Measurements taken from ChEMBL document CHEMBL4483862, “Open-source discovery of chemical leads for next-generation chemoprotective antimalarials” (2018).

System: Plasmodium berghei
Assay: Luciferase/luciferin-expressing antifolate-resistant parasites were used to infect a culture of HepG2 cells that were pre-incubated with compounds. Infected hepatocytes emit light due to the luciferase reaction. Assay results are presented as the percent inhibition of light emission compared to control. […]
Assay type: functional
Settings: sporozoite; for IC90: read-out: LUCIFERASE INFECTION ASSAY - IC90
[1] = read-out: LUCIFERASE INFECTION ASSAY - IC50

Row | SMILES | IC90 [µM] | IC50 [1] [µM] | other results
1 | Cc1ccc(S(=O)(=O)Nc2ccc(Nc3nccn4c(-c5ccccc5Oc5ccccc5)cnc34)cc2)cc1 | 5.41 | – | IC50 (PBLUC_HILL_SLOPE 1.64, PBLUC_R_SQUARED 0.733, read-out: LUCIFERASE INFECTION ASSAY - IC50): 1.42 µM
2 | CCCCCc1ccc(-c2nnc(Sc3ccc(C(F)(F)F)cc3[N+](=O)[O-])[nH]2)cc1 | > 7.56 | – | IC50 (PBLUC_HILL_SLOPE 9.1, PBLUC_R_SQUARED 0.598, read-out: LUCIFERASE INFECTION ASSAY - IC50): 6.15 µM
3 | N#CC(=N)C(C#N)NCc1ccccc1Sc1ccc(Cl)cc1 (centres undefined) | > 9.68 | > 9.68 | –
4 | COC(=O)c1cnc(Sc2n[nH]c(=O)n2C2CCCCC2)c([N+](=O)[O-])c1 | > 8.7 | > 8.7 | –
5 | O=C(Nc1ccccc1C(=O)Nc1nnc(C(F)(F)F)s1)c1ccccc1Cl | 2.71 | – | IC50 (HEPG2TOX_HILL_SLOPE 2.99, HEPG2TOX_R_SQUARED 0.762, PBLUC_HILL_SLOPE 9.09, PBLUC_R_SQUARED 0.594, read-out: LUCIFERASE INFECTION ASSAY - IC50): 2.13 µM
6 | Fc1ccc(C(CCNCc2ccccn2)c2ccc(Cl)cc2)cc1 (centres undefined) | > 9.3 | – | IC50 (PBLUC_HILL_SLOPE 1.42, PBLUC_R_SQUARED 0.0971, read-out: LUCIFERASE INFECTION ASSAY - IC50): 5.49 µM
7 | Cc1ccccc1-c1ccc(CN2CCC3(CC2)C(=O)N(Cc2cccnc2)C(=O)N3C)cc1 | 2.76 | 2.36 | –
8 | COc1ccc(C(=O)NCC(C)(C)SCc2c(C)cc(C)cc2C)cc1 | > 8.88 | – | IC50 (PBLUC_HILL_SLOPE 1.94, PBLUC_R_SQUARED 0.532, read-out: LUCIFERASE INFECTION ASSAY - IC50): 3.09 µM
9 | O=C(Nc1ccccc1)c1cn(-c2ccc3c(c2)OCCO3)nn1 | 5.96 | – | IC50 (FFLUC_HILL_SLOPE 1.49, FFLUC_R_SQUARED 0.912, PBLUC_HILL_SLOPE 0.315, PBLUC_R_SQUARED 0.673, read-out: LUCIFERASE INFECTION ASSAY - IC50): 0.00562 µM
10 | CC(NC(=O)COc1ccc(-c2nnco2)cc1)c1ccc(Cl)cc1Cl (centres undefined) | > 10 | – | IC50 (FFLUC_HILL_SLOPE 0.318, FFLUC_R_SQUARED 0.016, read-out: LUCIFERASE INFECTION ASSAY - IC50): > 10 µM
11 | N#Cc1c(Cl)cccc1N1CCOCC1 | > 14.8 | – | IC50 (FFLUC_HILL_SLOPE 1.9, FFLUC_R_SQUARED 0.649, HEPG2TOX_HILL_SLOPE 2.33, HEPG2TOX_R_SQUARED 0.905, PBLUC_HILL_SLOPE 3.58, PBLUC_R_SQUARED 0.165, read-out: LUCIFERASE INFECTION ASSAY - IC50): 14.1 µM
12 | COc1cccc(CN2CCC2(C)C(=O)Nc2ccccc2Cc2ccccc2)c1OC (centres undefined) | > 7.66 | > 7.66 | –
13 | CN(Cc1ccc(C(N)=O)cc1)c1ncnc2ccccc12 | 1.53 | – | IC50 (HEPG2TOX_HILL_SLOPE 2.36, HEPG2TOX_R_SQUARED 0.863, PBLUC_HILL_SLOPE 14.7, PBLUC_R_SQUARED 0.585, read-out: LUCIFERASE INFECTION ASSAY - IC50): 1.32 µM
14 | COc1cc(-c2nc3ccc(NC(=O)c4c(C)noc4C)cn3n2)cc(OC)c1OC | > 10 | > 10 | –
15 | CC(C)c1ccc(NC(=O)c2snc3ccc(Cl)cc23)cc1 | 6.63 | – | IC50 (HEPG2TOX_HILL_SLOPE 2.78, HEPG2TOX_R_SQUARED 0.915, PBLUC_HILL_SLOPE 3.55, PBLUC_R_SQUARED 0.653, read-out: LUCIFERASE INFECTION ASSAY - IC50): 3.57 µM
16 | Cc1ccc(/C=C2\Oc3cc(O)cc(C)c3C2=O)cc1 | 7.36 | – | IC50 (FFLUC_HILL_SLOPE 2.5, FFLUC_R_SQUARED 0.135, PBLUC_HILL_SLOPE 2.13, PBLUC_R_SQUARED 0.666, read-out: LUCIFERASE INFECTION ASSAY - IC50): 2.63 µM
17 | O=C(NC(=S)NNc1ncc(C(F)(F)F)cc1Cl)c1ccccc1 | 0.377 | – | IC50 (FFLUC_HILL_SLOPE 148, FFLUC_R_SQUARED 0.758, HEPG2TOX_HILL_SLOPE 0.501, HEPG2TOX_R_SQUARED 0.887, PBLUC_HILL_SLOPE 13.6, PBLUC_R_SQUARED 0.819, read-out: LUCIFERASE INFECTION ASSAY - IC50): 0.321 µM
18 | Cc1ccc(-n2nnnc2-c2cnc3ccccc3c2-c2ccccc2)cc1 | > 9.08 | > 9.08 | –
19 | CCc1cccc2c(C(=O)COC(=O)C3CCN(S(=O)(=O)c4ccc(Cl)c(C(F)(F)F)c4)CC3)c[nH]c12 | > 10 | – | IC50 (FFLUC_HILL_SLOPE 3.04, FFLUC_R_SQUARED 0.433, read-out: LUCIFERASE INFECTION ASSAY - IC50): > 10 µM
20 | Clc1ccc(-c2nc(-c3ccccc3)c(-c3ccccc3)n2CCc2ccc(Cl)cc2Cl)cc1 | > 10 | – | IC50 (PBLUC_HILL_SLOPE 13, PBLUC_R_SQUARED 0.179, read-out: LUCIFERASE INFECTION ASSAY - IC50): 9.63 µM
21 | COc1ccc(C(=O)Nc2ccc3nc(-c4ccccc4)nn3c2)cc1F | > 10 | – | IC50 (FFLUC_HILL_SLOPE 22.9, FFLUC_R_SQUARED 0.117, read-out: LUCIFERASE INFECTION ASSAY - IC50): > 10 µM

Row | SMILES | IC90 [µM] | IC50 [1] [µM] | other results
22 | O=[N+]([O-])c1ccc(NC2C=CS(=O)(=O)C2)c(Cl)c1 (centres undefined) | > 10 | – | IC50 (HEPG2TOX_HILL_SLOPE 13.7, HEPG2TOX_R_SQUARED 0.786, read-out: LUCIFERASE INFECTION ASSAY - IC50): > 10 µM
23 | Cc1ccc(S(=O)(=O)Nc2ccc(Nc3nccn4c(-c5cccc(OC(F)(F)F)c5)cnc34)cc2)cc1 | > 6.12 | – | IC50 (PBLUC_HILL_SLOPE 2.83, PBLUC_R_SQUARED 0.42, read-out: LUCIFERASE INFECTION ASSAY - IC50): 3 µM
24 | CCCCNC(=O)c1c(NC(=O)c2cccc(Cl)c2Cl)nc2ccc(C)cn12 | 1.27 | – | IC50 (HEPG2TOX_HILL_SLOPE 1.01, HEPG2TOX_R_SQUARED 0.774, PBLUC_HILL_SLOPE 4.09, PBLUC_R_SQUARED 0.588, read-out: LUCIFERASE INFECTION ASSAY - IC50): 0.743 µM
25 | CCNC(=O)c1cccc(Nc2nc(C(F)(F)F)nc3ccccc23)c1 | > 10 | > 10 | –
26 | Cn1ncc(C#N)c1NC(=O)c1cccc(Oc2ccccc2)c1 | 8.69 | – | IC50 (HEPG2TOX_HILL_SLOPE 1.03, HEPG2TOX_R_SQUARED 0.84, PBLUC_HILL_SLOPE 1.64, 1.43, PBLUC_R_SQUARED 0.588, 0.656, read-out: LUCIFERASE INFECTION ASSAY - IC50): 2.85 µM
27 | COc1cc(/C=N/Nc2nc(Cl)c(Cl)cc2Cl)ccc1OCC(=O)N1CC(C)OC(C)C1 (centres undefined) | > 10 | > 10 | –
28 | CCOc1cccc(-c2cn3c(-c4ccc5ncccc5c4)cnc3cn2)c1 | 0.0959 | – | IC50 (HEPG2TOX_HILL_SLOPE 1.97, HEPG2TOX_R_SQUARED 0.663, PBLUC_HILL_SLOPE 2.12, PBLUC_R_SQUARED 0.862, read-out: LUCIFERASE INFECTION ASSAY - IC50): 0.0341 µM
29 | CCc1cc2c(Nc3ccc4c(c3)OCO4)nc(C)nc2s1 | > 10 | – | IC50 (PBLUC_HILL_SLOPE 2.79, PBLUC_R_SQUARED 0.532, read-out: LUCIFERASE INFECTION ASSAY - IC50): 6.73 µM
30 | C=CCc1c(C)[nH]c2c(-c3ccccc3)cnn2c1=O | 12.1 | – | IC50 (PBLUC_HILL_SLOPE 3.12, PBLUC_R_SQUARED 0.621, read-out: LUCIFERASE INFECTION ASSAY - IC50): 6 µM
31 | OCc1ccc(-c2cnc3cnc(-c4ccco4)cn23)cc1 | > 11.3 | > 11.3 | –
32 | CC(C)(C)c1ccc(OCC(=N)NC(=O)c2ccc(OC(F)(F)F)cc2)cc1 | > 8.37 | > 8.37 | –
33 | COc1cc(/C=C2\COc3c(Cl)cc(Cl)cc3C2=O)cc(OC)c1O | 7.17 | – | IC50 (FFLUC_HILL_SLOPE 30.3, FFLUC_R_SQUARED 0.145, HEPG2TOX_HILL_SLOPE 11.5, HEPG2TOX_R_SQUARED 0.166, PBLUC_HILL_SLOPE 35.9, PBLUC_R_SQUARED 0.493, read-out: LUCIFERASE INFECTION ASSAY - IC50): 6.74 µM
34 | COc1cc2c(cc1OC)C(c1ccccc1)N(C(=O)/C=C/c1ccsc1)CC2 (centres undefined) | > 10 | > 10 | –
35 | O=C(COc1ccccc1SCc1ccc(Cl)cc1)NNC(=O)c1ccccc1Cl | > 7.15 | > 7.15 | –
36 | CC(=O)Nc1ccc2c(COC(=O)C(CC(C)C)NC(=O)c3ccc(Cl)cc3)cc(=O)oc2c1 (centres undefined) | > 10 | – | IC50 (FFLUC_HILL_SLOPE 0.303, FFLUC_R_SQUARED 0.675, read-out: LUCIFERASE INFECTION ASSAY - IC50): > 10 µM
37 | O=C(NC(=S)NNc1ncc(C(F)(F)F)cc1Cl)c1cccs1 | 1.1 | – | IC50 (FFLUC_HILL_SLOPE 14.4, FFLUC_R_SQUARED 0.344, HEPG2TOX_HILL_SLOPE 0.95, HEPG2TOX_R_SQUARED 0.974, PBLUC_HILL_SLOPE 2.04, PBLUC_R_SQUARED 0.707, read-out: LUCIFERASE INFECTION ASSAY - IC50): 0.374 µM
38 | CC(Nc1ccc2c(c1)Cc1ccccc1-2)C(=O)N1CCCC1 (centres undefined) | > 10 | – | IC50 (PBLUC_HILL_SLOPE 13.8, PBLUC_R_SQUARED 0.568, read-out: LUCIFERASE INFECTION ASSAY - IC50): 8.56 µM
39 | CCCCCn1c(SCC(=O)Nc2sccc2C(N)=O)nc2sc3c(c2c1=O)CCC3 | > 10 | – | IC50 (FFLUC_HILL_SLOPE 17.7, FFLUC_R_SQUARED 0.0867, read-out: LUCIFERASE INFECTION ASSAY - IC50): > 10 µM
40 | CCCCN1C(=O)/C(=C\c2ccc(O)c(OCC)c2)NC1=S | > 10 | – | IC50 (PBLUC_HILL_SLOPE 2.35, PBLUC_R_SQUARED 0.305, read-out: LUCIFERASE INFECTION ASSAY - IC50): 6.33 µM
41 | Cc1ccc2cc(Cn3cc(Br)ccc3=O)c(Cl)nc2c1C | 3.58 | – | IC50 (PBLUC_HILL_SLOPE 15.2, PBLUC_R_SQUARED 0.445, read-out: LUCIFERASE INFECTION ASSAY - IC50): 3.1 µM
42 | COc1ccc(/C=C2\CN(Cc3ccccc3)CC3(C=NN(CCO)C3c3ccc(OC)cc3)C2)cc1 (centres undefined) | > 6.63 | > 6.63 | –
